One data set concerns the target adrenergic α1 receptor. Briefly: Adrenergic α1 receptor binding assay ([3H]prazosin). The note with it: rat cerebral cortex, means ± SEM of three experiments, read-out: Receptor Affinity Ki ± SEM α1.
Data set [1] has as its system mice. Briefly: Tail suspension test (TST). The note with it: oral, immobility duration. Type of data set: in vivo, mouse.
The subject of the next data set is female rats. The note with it: females; cited from earlier work.
The test system of data set [2] is mice. As to conditions: oral, immobility duration.

The text below walks through data of publication PMC11870037 (Molecules, 2024).

For the compound `CNCC[C@H](Oc1cccc2ccccc12)c1cccs1` [Duloxetine, reference compound], the Ki at adrenergic α1 receptor came to 1.01 ± 0.0978 µM. Moreover, in the data set with mice [1], the “minimal effective dose (MED) in TST” value is on record as 16 mg/kg. The LD50 in the data set with female rats is 279 mg/kg. Also, in the data set on mice [2], the “minimal effective dose (MED) in FST” value turned out to be 16 mg/kg.

By Ki is commonly meant a dissociation constant, usually derived from enzyme kinetics or from competition with a known ligand. Usually LD50 stands for the dose expected to kill half of the subjects tested.
